Experimental data as given in patent US20150190479A1, “DELIVERY OF CHOLESTERYL ESTER TO STEROIDOGENIC TISSUES” (ALPHACORE PHARMA, LLC, priority 2010, published 2015).

Tests used:
Format in all cases: in vivo, human
[1] = Adrenal function of a trauma patient under treatment; conditions: car accident victim; combination of 150 mg/day anacetrapib and LCAT injection (40 mg) every 5 days
Excerpt: The efficacy of a particular dose may be assessed by reference noting the change in HDL-C or improvement in certain physiologic parameters. Suitable physiologic parameters include, but are not limited to, improved cortisol response to ACTH, improved cortisol levels, change in circulating levels of steroids, e.g., corticosteroids, glucocorticoids, cortisol, testosterone, estrogen, decreased inflammatory cytokines, and improved liver function.
A victim of a car accident with abdominal injuries is brought to the hospital. Their HDL is 55 mg/dl. As HDL routinely falls after trauma, the physician prescribes 150 mg/day anacetrapib and an injection of LCAT (40 mg) every 5 days until the patient is fully stabilized. This treatment maintained the patient's HDL at >75 mg/dl throughout their recovery. Adrenal function was maintained.

[2] = Testosterone level and complaints of a patient with low testosterone; conditions: HDL-C 25 mg/dl, 150 mg/day
Procedure: A patient complains of lethargy and impotence. Their testosterone levels are low, and their HDL-C is 25 mg/dl. The physician prescribes ancetrapib at a dose of 150 mg/day. […] The patient's original complaints are absent.

[3] = HDL-C level of a patient after treatment (illustrative patient examples); conditions: patient admitted for major surgery, HDL-C 25 mg/dl at admission; LCAT 40 mg given 24 hours prior to surgery
Excerpt: Measurement of biomarker levels and parameters described above may be measured using methods that are well known in the art. For example, change in HDL-CE level is easily detected with standard clinical laboratory procedures. Likewise, measuring the adrenal response to ACTH is commonly used in patients with suspected adrenal insufficiency. One of ordinary skill in the art would understand the significance of the results and may choose to adjust the dose based on assessments such as those described above.
A patient is admitted into the hospital for major surgery. The patients HDL-C level is 25 mg/dl. […] The patient is administered a dose of LCAT of 40 mg 24 hours prior to surgery. The patient's HDL-C is measured prior to surgery, and is now above 50 mg/di, thus greatly reducing risk of infection and/or death following the procedure.
A burn victim is stabilized in the hospital with an HDL-C level of 12 mg/dl. […] The patient is infused with rHDL at a dose of 25 mg/kg over a period of 5 hours, raising the patient's HDL-C by 50 mg/dl. In order to maintain this level of HDL, the patient is administered a 60 mg dose of LCAT. Cortisol levels are monitored periodically to determine if the adrenal function is normalized. […]
A patient is beginning to enter septic shock. […] Cortisol levels are monitored to determine if the adrenal function is normalized. […]

Row | Molecule | adrenal function [1] | patient's original complaints (lethargy and impotence) [2] | testosterone level on recheck ([2]; rechecked 'For weeks later') | patient's HDL-C measured prior to surgery [3]
1 | COc1cc(F)c(C(C)C)cc1-c1ccc(C(F)(F)F)cc1CN1C(=O)O[C@H](c2cc(C(F)(F)F)cc(C(F)(F)F)c2)[C@@H]1C [anacetrapib] | maintained | absent | within normal levels | –
2 | lecithin-cholesterol acyltransferase (protein, UniProt P04180 25-440, looked up, enzyme) Phosphatidylcholine-sterol …: FWLLNVLFPPHTTPKAELSNHTRPVILVPGCLGNQLEAKLDKPDVVNWMCYRKTEDFFTIWLDLNMFLPLGVDCWIDNTRVVYNRSSGLVSNAPGVQIRVPGFGKTYSVEYLDSSKLAGYLHTLVQNLVNNGYVRDETVRAAPYDWRLEPGQQEEYYRKLAGLVEEMHAAYGKPVFLIGHSLGCLHLLYFLLRQPQAWKDRFIDGFISLGAPWGGSIKPMLVLASGDNQGIPIMSSIKLKEEQRITTTSPWMFPSRMAWPEDHVFISTPSFNYTGRDFQRFFADLHFEEGWYMWLQSRDLLAGLPAPGVEVYCLYGVGLPTPRTYIYDHGFPYTDPVGVLYEDGDDTVATRSTELCGLWQGRQPQPVHLLPLHGIQHLNMVFSNLTLEHINAILLGAYRQGPPASPTASPEPPPPE | maintained | – | – | above 50 mg/di
